Test results reported in US8334236B2, “Ring-fused 2-pyridone derivatives and herbicides” (Kumiai Chemical Industry Co., Ltd., priority 2009, dated 2012).

Columns and labels:
Assay type in all cases: in vivo
Parameters in all cases: scale not given here
[1] = test system: Monochoria vaginalis (Burm. f.) Presl var. plantaginea (Roxb.) Solms-Laub.; experiment: Test Example 1: herbicidal effects in paddy field soil treatment; conditions: 1000 g active ingredient per hectare, 21st day after treatment
Procedure: (§1) 100-cm^2 plastic pots were filled with paddy field soil. After puddling and leveling, seeds of Echinochloa oryzicola Vasing, Monochoria vaginalis (Burm. f.) Presl var. plantaginea (Roxb.) Solms-Laub., and Scirpus juncoides Roxb. var. ohwianus. T. Koyama were sowed in the pots, and the soil was waterlogged to a water depth of 3 cm. On the next day, a wettable powder formulation prepared according to Formulation Example 1 was diluted with water, and the dilution was added dropwise onto the water surface. The amount of application was an amount equivalent to 1000 g of the active ingredient per hectare. Thereafter, the plants were grown in a greenhouse, and on the 21st day after the treatment, the herbicidal effects were investigated according to the criteria described in Table 71.
(§2) In addition, comparative compound A, comparative compound B, comparative compound C, and comparative compound D in the tables represent Compound Nos. 70, 34, 32, and 31, respectively, as described in EP-283261. The structural formulas of these compounds are presented below.

[2] = test system: Echinochloa oryzicola Vasing; experiment: as above; conditions: 1000 g active ingredient per hectare, 21st day after treatment
Procedure: as §1, §2

[3] = test system: Scirpus juncoides Roxb. var. ohwianus. T. Koyama; experiment: as above; conditions: 1000 g active ingredient per hectare, 21st day after treatment
Procedure: as §1, §2

Amaranthus retroflexus [4] = experiment: Test Example 3: herbicidal effects in farmland foliar treatment; conditions: 1000 g active ingredient per hectare, 14th day after treatment
Procedure: (§3) 80-cm^2 plastic pots were filled with farmland soil. Seeds of Echinochloa crus-galli (L.) P. Beauv. var. crus-galli, Abutilon theophrasti medicus, and Amaranthus retroflexus were sowed in the pots, and the plants were grown for two weeks in a greenhouse. A wettable powder formulation prepared according to Formulation Example 1 was diluted with water, and the dilution was applied by foliar treatment by spraying with a small sprayer over the whole plant from the upper part, in an amount equivalent to 1000 liters per hectare, such that 1000 g of the active ingredient was applied per hectare. Thereafter, the plants were grown in a greenhouse, and on the 14th day after the treatment, the herbicidal effects were investigated according to the criteria described in Table 71 shown above.

[5] = test system: Echinochloa crus-galli (L.) P. Beauv. var. crus-galli; experiment: as above; conditions: 1000 g active ingredient per hectare, 14th day after treatment
Procedure: as §3

[6] = test system: Abutilon theophrasti medicus; experiment: as above; conditions: 1000 g active ingredient per hectare, 14th day after treatment
Procedure: as §3

Amaranthus retroflexus [7] = experiment: Test Example 2: herbicidal effects in farmland soil treatment; conditions: 1000 g active ingredient per hectare, 21st day after treatment
Procedure: as §3, with “of” for “of Echinochloa crus-galli (L.) P. Beauv. var. crus-galli,”, “medicus” for “medicus,”, “soil was covered.” for “the plants were grown for two weeks in a greenhouse.”, “uniformly sprayed on the soil surface” for “applied by foliar treatment by spraying”, “sprayer,” for “sprayer over the whole plant from the upper part,”, “21st” for “14th”

[8] = test system: Abutilon theophrasti medicus; experiment: as above; conditions: 1000 g active ingredient per hectare, 21st day after treatment
Procedure: as §3, with “of” for “of Echinochloa crus-galli (L.) P. Beauv. var. crus-galli,”, “medicus” for “medicus,”, “soil was covered.” for “the plants were grown for two weeks in a greenhouse.”, “uniformly sprayed on the soil surface” for “applied by foliar treatment by spraying”, “sprayer,” for “sprayer over the whole plant from the upper part,”, “21st” for “14th”

Echinochloa crus-galli = experiment: as above; conditions: 1000 g active ingredient per hectare, 21st day after treatment
Setaria viridis [9] = experiment: as above; conditions: 1000 g active ingredient per hectare, 21st day after treatment
Setaria viridis [10] = experiment: Test Example 3: herbicidal effects in farmland foliar treatment; conditions: 1000 g active ingredient per hectare, 14th day after treatment

Structure (SMILES)	Herbicidal effect index, Monochoria vaginalis [1]	Herbicidal effect index, Echinochloa oryzicola [2]	Herbicidal effect index, Scirpus juncoides [3]	Herbicidal effect index, Amaranthus retroflexus (Amaranthus retroflexus [4])	Herbicidal effect index, Echinochloa crus-galli [5]	Herbicidal effect index, Abutilon theoprasti [6]	Herbicidal effect index, Amaranthus retroflexus (Amaranthus retroflexus [7])	Herbicidal effect index, Abutilon thophrasti [8]	Herbicidal effect index, Echinochloa crus-galli (Echinochloa crus-galli)	Herbicidal effect index, Setaria viridis (Setaria viridis [9])	Herbicidal effect index, Setaria viridis (Setaria viridis [10])
O=C1CCCC(O)=C1C(=O)c1cnccn1 [Comparative compound A, reference compound]	0	2	0	1	0	2	0	1	5	1	0
O=C1CCCC(O)=C1C(=O)c1ccc2ccccc2n1 [Comparative compound B, reference compound]	0	0	0	1	0	5	2	2	3	0	0
CC1(C)CC(=O)C(C(=O)c2cnc3ccccc3n2)=C(O)C1 [Comparative compound C, reference compound]	2	1	1	0	0	4	3	0	2	0	0
CC1(C)CCC(=O)C(C(=O)c2cnc3ccccc3n2)=C1O [Comparative compound D, reference compound]	4	1	2	1	0	4	3	0	2	0	0
COc1ccc(-n2c(=O)c(C(=O)C3=C(O)CCCC3=O)cc3ccccc32)cc1 [I-56]	5	5	5	5	3	5					3
CCn1c(=O)c(C(=O)C2=C(O)CCCC2=O)cc2c(Cl)cccc21 [I-157]	4	5	3								
CCn1c(=O)c(C(=O)C2=C(O)CCCC2=O)cc2cccnc21 [II-3]	5	5	5	5	5	5					4
CCCn1c(=O)c(C(=O)C2=C(O)CCCC2=O)cc2cccnc21 [II-4]	5	5	5	5	5	5	5	5	5	4	4
CCOCCn1c(=O)c(C(=O)C2=C(O)CCCC2=O)cc2cccnc21 [II-15]	5	5	5	5	5	5	5	5	5	5	5
O=C1CCCC(O)=C1C(=O)c1cc2cccnc2n(Cc2ccccc2Cl)c1=O [II-28]	5	5	5	5	4	5					3
O=C1CCCC(O)=C1C(=O)c1cc2cccnc2n(Cc2cccc(Cl)c2)c1=O [II-29]	5	5	5								
O=C1CCCC(O)=C1C(=O)c1cc2cccnc2n(Cc2ccc(Cl)cc2)c1=O [II-30]	5	4	5								
COc1cccc(Cn2c(=O)c(C(=O)C3=C(O)CCCC3=O)cc3cccnc32)c1 [II-38]	5	5	5								
COc1ccc(Cn2c(=O)c(C(=O)C3=C(O)CCCC3=O)cc3cccnc32)cc1 [II-39]	5	5	5	5	5	5					3
O=C1CCCC(O)=C1C(=O)c1cc2cccnc2n(-c2cccc(F)c2)c1=O [II-43]	5	5	5	5	5	5	5	5	5	5	5
Cc1ccc2cc(C(=O)C3=C(O)CCCC3=O)c(=O)n(C)c2n1 [II-121]	5	5	5	5	4	5					3
CC(C)c1ccc2cc(C(=O)C3=C(O)CCCC3=O)c(=O)n(C)c2n1 [II-126]	5	3	4								
O=C1CCCC(O)=C1C(=O)c1cc2ccc(C(F)(F)F)nc2n(-c2ccccc2)c1=O [II-138]	5	5	5	3	5	5					5
CCc1ccc2cc(C(=O)C3=C(O)CCCC3=O)c(=O)n(C)c2n1 [II-434]	5	5	5								
O=C1CCCC(O)=C1C(=O)c1cc2ccc(C(F)F)nc2n(-c2ccc3c(c2)OCCO3)c1=O [II-442]	5	5	5								
O=C1CCCC(O)=C1C(=O)c1cc2ncccc2n(-c2ccccc2)c1=O [III-41]	4	4	4								
